From patent US6960687B2, “Derivatives and pharmaceutical compositions of n-hydroxyalkyl tetramethylcyclopropane-carboxamide, having anti-epiletic, neurological, and CNS activity, and method for their preparation” (priority 2002, dated 2005)

How the values were obtained:
mouse = settings: literature statement; cited from earlier work
mice [1] = settings: cited from earlier work
mice [2] = test: maximal electroshock seizure test (MES); type: in vivo
Description: The ED50 (mice ip) in the MES model is between 150 and 300 mg/kg in mice (Table 1). This value is slightly lower than that of VPA in mice. The results are indicative of the compound 1 having an efficacy against generalized seizures and complex partial seizures that evolve into generalized motor seizures.
(§1) Compound V of the above diagram (2-hydroxyethyl-tetramethylcyclopropane-carboxamide) was screened for its ability to protect against induced convulsions in MES and scMet test. […] At the sc Met (subcutaneous metrazole) test, 3 out of 4 mice were protected following ip administration of 50 mg/kg.

mice [3] = test: subcutaneous metrazole test (sc Met); type: in vivo
Description: This value is slightly lower (more efficacious) than that found for VPA in mice. The results are indicative of the compound 1 having an efficacy against absence seizures and ability to raise seizure threshold.
as §1

mice [4] = test: neurotoxicity, rotorod ataxia test; type: in vivo
Description: (§2) Neurotoxicity of the claimed agents was assessed in mice (ip. administration) in the rotorod ataxia test. Compound 1 was neurotoxic in some of the mice tested at doses of above 146 mg/kg ip. The PI for compound 1 at the highest stimulus intensity (44 mA) in the 6 Hz test in mice was 1.1 compared to 0.91 for VPA.

mice [5] = test: 6 Hz psychomotor seizure model; settings: for PI (6 Hz 44 mA): protective index at 44 mA stimulus; for ED50: Mus musculus, 0.25 h
[6] = test system: animal models of epilepsy; settings: literature statement; cited from earlier work
[7] = neurotoxicity, rotorod ataxia test; type: in vivo, mice; settings: mouse, in vivo, ip
Description: as §2

[8] = ip, 15 min following administration

## CC1(C)C(C(N)=O)C1(C)C [Tetramethylcyclopropane carboxamide, Tetramethyl-cyclopropane-carboxamide]
mouse
  teratogenicity: not teratogenic

## CC[C@@H](C(N)=O)N1CCCC1=O [levetiracetam]
Mice [1]
  ED50 in 6 Hz model at 44 mA stimulus (existing antiepileptic drugs): 189 mg/kg

## CC1(C)C(C(=O)NCO)C1(C)C [Compound 1, N-hydroxymethyl-tetramethylcyclopropane-carboxamide]
Mice [2]; [8]
  MES ED50: 150 to 300 mg/kg
Mice [3]; [8]
  sc Met ED50: 120 mg/kg
Mice [4]; mice, ip, 15 min following administration
  Neurotoxicity TD50: 146 mg/kg
Mice [4]; mice, ip, rotorod ataxia test
  doses neurotoxic in some of the mice tested: above 146 mg/kg
Mice [5]; mice, 32 mA
  times more active compared to VPA, 6 Hz 32 mA test: 1.38 times
Mice [5]; mice, 44 mA
  times more active compared to VPA, 6 Hz 44 mA test: 2.31 times
Mice [5]; mice, ip, 15 min, stimulation intensity 22 mA
  6 Hz 22 mA ED50: 75 mg/kg
Mice [5]; mice, ip, 15 min, stimulation intensity 32 mA
  6 Hz 32 mA ED50: 91 mg/kg
Mice [5]; mice, ip, 15 min, stimulation intensity 44 mA
  6 Hz 44 mA ED50: 134 mg/kg
Mice [5]; mice, ip
  PI (6 Hz 44 mA): 1.1

## CC1(C)C(C(=O)NCCO)C1(C)C [Compound V, 2-hydroxyethyl-tetramethylcyclopropane-carboxamide]
Mice [2]; dose of 30 mg/kg ip
  mice protected at the MES test: 1 out of 4
Mice [3]; ip administration of 50 mg/kg
  mice protected at the sc Met test: 3 out of 4
Mice [4]; dose of 50 mg/kg ip
  behavioral impairment (neurotoxicity): did not show any behavioral impairment

## CCC(C)C(CC)C(N)=O (stereo not drawn) [Valnoctamide (VCD), Valnoctamide]
mouse
  teratogenicity: non-teratogenic

## CNC(=O)C1C(C)(C)C1(C)C [N-Methyl-tetramethylcyclopropane carboxamide]
mouse
  teratogenicity: not teratogenic
[6]
  potency relative to VPA in animal models of epilepsy: approximately 10 times

## CCCC(C(N)=O)C(C)C (stereo not drawn) [propyl-isoproylacetamide (PID), propyl-isoproylacetamide]
mouse
  teratogenicity: non-teratogenic

## CCCC(CCC)C(=O)O [VPA, valproic acid, reference compound]
Mice [2]; Mus musculus, 0.25 h, ip, 15 min following administration
  ED50: 271 mg/kg
[7]
  TD50 at 15 min: 283 mg/kg
Mice [5]; ip, read-out: 6 Hz 22 mA ED50
  ED50: 42 mg/kg
Mice [5]; ip, read-out: 6 Hz 44 mA ED50
  ED50: 310 mg/kg
Mice [5]; mice, ip
  PI (6 Hz 44 mA): 0.91
